As usually defined, the AUC(0-inf) is total exposure, with the tail of the curve extrapolated. Usually Cmax stands for the peak of the concentration-time curve. For orientation: Tmax means the time from dosing to the highest level. As usually defined, the half-life is the time needed for the level to fall by half in the phase considered. A low value points to fast loss.

This is an account of results in publication PMC12055592, “Post-symptomatic NLRP3 inhibition rescues cognitive impairment and mitigates amyloid and tau driven neurodegeneration” (Npj Dementia, 2025).

Data set [1] in a line: Mouse pharmacokinetic study, 7 days oral dosing, blood. The following applies: WT mice. In kind it is in vivo. As to the method:
Male C57Bl/6 mice (weight 20–30 g, age 6–8 weeks old) were obtained from Charles River Laboratories Canada, and acclimated for 5 days before the study. Three animals were dosed by oral gavage during 7 days with 20 mg/kg of VEN-02XX suspended in 0.5% w/v methylcellulose/0.2% w/v Tween 80, at a dose volume of 10 mL/kg. Food and water were available ad libitum to all animals. On day 7, serial blood samples were collected from a tail snip at 0.25, 0.5, 1, 2, 4, 6, and 24 h post-dose, and […] of blood was added to a micro tube racked system pre-filled with […] of 10 mM sodium citrate buffer (final blood/buffer ratio 1:3, or dilution factor of 4). The plate was stored at −20 °C until LC-MS/MS analysis.
Concentrations of VEN-02XX in plasma and brain were determined by a LC-MS/MS assay. The plasma samples were thawed at room temperature and 20 μL aliquot of each sample was added to a 1.2 mL deep 96-well plate containing 20 µL ACN. The standard curve was prepared by making different dilutions in ACN. A 20 µL standard solution at each concentration was added into a 96-deepwell plate, followed by addition of 20 µL blank plasma or brain homogenate. Then, 200 μL of an internal standard mixture (5 ng/mL Glyburide and Loperamide in ACN) was added to each sample. The plates were vortexed and centrifuged at 4000 rpm for 10 min at 4 °C; 70 μL of the supernatant was diluted with 140 μL of water, and 10 μL of the solution was injected onto an analytical column. A Shimadzu UPLC system coupled with a SCIEX 4500 mass spectrometer (AB Sciex, Foster City, CA) was used for sample analysis. The mobile phase A was 0.1% FA in water and mobile phase B was 0.1% FA in 1/5 IPA/ACN. The gradient started at 10% B, held for 0.2 min and increased to 95% B in 1.3 min, maintained at 95% B for 0.7 min, and then decreased to 10% B within 0.01 min. The total flow rate was 0.5 mL/min, and samples were injected onto an Acquity UPLC BEH C18 (2.1 mm × 5 cm, 2.3 u) analytical column with a total run time of 2.5 min. Data were acquired using multiple reactions monitoring (MRM) in positive ion electrospray mode with an operating source temperature of 400 °C. Two transitions were monitored for VEN-02XX and the more sensitive transition with less interference (397.1 –> 270.1) was used for quantification.
Pharmacokinetic parameters were determined by non-compartmental analysis using WinNonLin software (Phoenix^TM, version 8.3), and the following parameters were calculated from the plasma concentrations versus time data: T1/2, Cmax, Tmax, AUCinf, AUClast. When appropriate, the brain Kp was calculated as AUClast(brain)/AUClast(plasma). Free brain partition coefficient (Kpuu) was calculated using the free fraction in plasma and brain measured in a high throughput equilibrium dialysis assay.

The subject of data set [2] is 5XFAD/Rubicon KO mice. The data set can be described thus: Novel object recognition in 5XFAD/Rubicon KO mice. The data set is classed as in vivo, mouse. As for the experimental part:
(§1) 5XFAD/Rubicon KO mice received vehicle (0.5% w/v methylcellulose/0.1% w/v Tween® 80 in water) or VEN-02XX (0.01, 1, or 20 mg/kg) every day by oral gastric gavage for 9 weeks.
Mice were acclimated to the testing room for 48 h. For habituation, mice were allowed to explore an open-field box (50 cm × 50 cm) for 15 min per day over the course of 48 h. Mice were then exposed to two identical objects for 10 min on the day of testing. One hour later, a novel object was introduced, and mice were allowed to explore for 5 min during the test phase. The time spent exploring each object was quantified using AnyMaze video tracking software using the manufacturer define NOR protocol. Novel object preference (%) and the discrimination index (time with novel)/(novel + familiar) * 100) were calculated for each mouse using AnyMaze software.

The test system of data set [3] is 5XFAD/Rubicon KO mice. The data set can be described thus: Brain immunohistochemistry (Iba1, Aβ, pTau S396, NeuN) in 5XFAD/Rubicon KO mice. The data set is classed as in vivo, mouse. Conditions: 9 weeks PO QD. As for the experimental part: as §1
Following post-mortem collection, the brain was placed in a mouse brain matrix and sliced along the sagittal suture to separate the hemispheres. The left hemisphere was immediately processed for downstream biochemical analyses by snap freezing in liquid nitrogen. The right half was drop-fixed in 4% PFA in PBS for 24 h and then washed 5x in fresh PBS before being submerged in 30% sucrose cryoprotectant solution for 24 h. After 24 h, brains were frozen in cryomolds in a 2:1 mixture of 30% sucrose and optimal cutting temperature compound (OCT), cryomolds were stored at −80 °C until use. For slide preparation, brains were allowed to acclimatize to −20 °C in a Thermo Shandon cryotome. After equilibration at −20 °C, tissue was cryostat sectioned at 25 μm (cortex) or 40 μm (free floating sections for hippocampus). Steam-mediated antigen retrieval was performed using 1x citrate buffer. Sections were rinsed in PBS, blocked in 3% bovine serum albumin/0.2% Triton X-100/PBS for 1 h, and incubated with primary antibodies in blocking buffer overnight at 4 °C (1:200 goat anti-Iba1 [Novus Biologicals, Centennial, CO], 1:500 mouse anti-Aβ 82E1 MOAB [Immuno-Biological Laboratories, Inc., Spring Lake Park, MN], 1:200 rabbit anti-pTau S396 [Cell Signaling, Danvers, MA], 1:200 mouse anti-NeuN [Cell Signaling]). Sections were incubated with appropriate secondary antibodies (Jackson ImmunoResearch, West Grove, PA) for 1 h at room temperature. For the complete list of antibodies please reference Supplementary Table 2. ProLong™ Diamond or ProLong™ Gold Antifade Mountant with or without 4’,6-diamidino-2-phenylindole (DAPI) counterstain (Thermo Fisher Scientific, Waltham, MA). Slides were imaged on a Zeiss Axio-observer A1 inverted microscope with an Andor iXon EMCCD camera and X-Cite LED fluorescence unit. Image analysis was performed using Fiji and 3DMorph AnalyzeSkeleton for microglial analyses.

Where [4] appears, read: male, C57Bl/6, mouse, whole blood, blood, 20 mg/kg PO QD for seven days.

Molecules are shown by their SMILES.

For `CC(C)(O)CNc1nnc(-c2ccc(Cl)cc2C(F)(F)F)c2ccncc12` [VEN-02XX], the “NLRP3 inhibitory activity maintained by exposure” value in data set [1] (20 mg/kg PO once daily, 7 days) is reported as “sufficient to maintain a 50% inhibitory activity of NLRP3 throughout the dosing schedule”. Besides, in data set [1] (setting [4]), the AUC(0-inf) was found to be 143 µM·h, the highest level (Cmax) was 20.7 µM, the Tmax came to 1 h and the half-life was 3.16 h. The novel object recognition entry in the data set on 5XFAD/Rubicon KO mice [2] (9 weeks, 0.01, 1, 20 mg/kg PO QD vs vehicle) is “striking dose-dependent improvement”. For the same compound, the “novel object recognition, learning and memory” value in the data set on 5XFAD/Rubicon KO mice [2] (9 weeks, 20 mg/kg PO QD) is “restoration of learning and memory to near wild type control levels for most animals”. In the data set on 5XFAD/Rubicon KO mice [3] (20 mg/kg, 3DMorph), the microglial branch length result is listed as “significant increases in microglial branch length”. Moreover, in the data set with 5XFAD/Rubicon KO mice [3] (20 mg/kg, cortex and CA3 region of hippocampus), the “pTau S396 signal” value is recorded as “almost complete suppression in pTau signal”. The “microglia/plaque association (co-localization of Iba1 with amyloid)” value in the data set on 5XFAD/Rubicon KO mice [3] was “robust disassociation of the microglia from the Aβ plaques”. Besides, the microglial soma volume entry in the data set with 5XFAD/Rubicon KO mice [3] (3DMorph) is “commensurate decreases in soma volume in a dose-dependent and statistically significant manner”. The gross microglial morphology entry with 5XFAD/Rubicon KO mice [3] (Iba1 staining) is given as “transition from the disease-associated active ameboid morphology towards a homeostatic ramified morphology”. Moreover, in the data set on 5XFAD/Rubicon KO mice [3] (NeuN stained sections), the “CA3 and dentate gyrus thickness” value is “significantly increased both CA3 and dentate gyrus (DG) thickness”. In the data set on 5XFAD/Rubicon KO mice [3] (cortex and CA3 region of hippocampus), the “phosphorylated tau (pTau S396) mean area” value was “dose-dependent and statistically significant reduction in phosphorylated tau”. In the data set with 5XFAD/Rubicon KO mice [3] (cortex and hippocampus), the “Iba1 mean area (microglial activation)” value is “reduced the cumulative signal of the key microglial activation marker, Iba1, in both the cortex and hippocampus in a dose-dependent and statistically significant manner”; the “NeuN+ cell count (neuronal numbers)” value was “robust dose-dependent and statistically significant neuroprotective effect”. For the same compound, in the data set on 5XFAD/Rubicon KO mice [3] (cortex and hippocampus, especially at higher doses), the Aβ plaque area/size entry is “significant reduction in Aβ plaque area/size in both the cortex and hippocampus in a dose-dependent manner”. Besides, the “Aβ plaque burden (cumulative plaque #)” value in the data set with 5XFAD/Rubicon KO mice [3] (cortex and hippocampus, did not reach statistical significance) is “trending reduction in Aβ plaque burden”.
